For six molecules, Km, Kact and IC50 results are on record in US7211423B2 (Bristol-Myers Squibb Co., priority 2004, dated 2007).

What is called Km is the substrate concentration at which the rate is half of its maximum. The term IC50 denotes the concentration that inhibits the measured activity by half.

One assay has as its target T1, recombinant human ACC2 (Homo sapiens, UniProt O00763, V2141I).
T1 construct: To delete the NH2-terminus 148 amino acid of human ACC2; 6xHis (C); made in house; host or cells: Sf9 insect cells infected with recombinant baculovirus (pBlueBac-human-ACC2-Delta148-V5-Myc-His-WT); purified on a c-Myc-5 IgG column
Kind of assay: ACC enzyme activity assay ([14C]bicarbonate fixation) with purified recombinant human ACC2. The assay is classed as biochemical. The note with it: for Km: substrate varied, all other reagents saturating, 37° C.; for IC50: concentration dependent inhibition of recombinant human ACC2. On the procedure: ACC enzymatic assays were carried out essentially according to Tanabe et al. (Tanabe et al., (1981) Methods Enzymol. 71 Pt C, 5–16) with modifications. […] Aliquots of 30 μl of 25 mM KH[^14C]O3 (specific activity 1.3 μCi/μmol, final KH[^14C]O3, concentration 5 mM) was then added to the mixture to initiate the reaction which was carried out for 10 min at 37° C. At the end, the reactions were quenched with 50 μl 2 N HCl and the vials were heated for 2 hours at 80° C. to remove excess bicarbonate as ^14CO2. Scintillant was then added and the acid-stable malonyl CoA remaining in the vial was counted in a scintillation counter. ACC specific activities were expressed as nmol/min/mg protein.

In another assay the target is Rat ACC1 (Rattus norvegicus, UniProt P11497). The note with it: literature value, Trumble et al. (1995); cited from earlier work.
The next assay has as its system Rat ACC2. The note with it: Trumble et al. (1995), cited from earlier work; for IC50: literature value for rat ACC2 enzyme.

SMILES strings stand for the structures.

T1 sequence (O00763 149-2458 V2141I): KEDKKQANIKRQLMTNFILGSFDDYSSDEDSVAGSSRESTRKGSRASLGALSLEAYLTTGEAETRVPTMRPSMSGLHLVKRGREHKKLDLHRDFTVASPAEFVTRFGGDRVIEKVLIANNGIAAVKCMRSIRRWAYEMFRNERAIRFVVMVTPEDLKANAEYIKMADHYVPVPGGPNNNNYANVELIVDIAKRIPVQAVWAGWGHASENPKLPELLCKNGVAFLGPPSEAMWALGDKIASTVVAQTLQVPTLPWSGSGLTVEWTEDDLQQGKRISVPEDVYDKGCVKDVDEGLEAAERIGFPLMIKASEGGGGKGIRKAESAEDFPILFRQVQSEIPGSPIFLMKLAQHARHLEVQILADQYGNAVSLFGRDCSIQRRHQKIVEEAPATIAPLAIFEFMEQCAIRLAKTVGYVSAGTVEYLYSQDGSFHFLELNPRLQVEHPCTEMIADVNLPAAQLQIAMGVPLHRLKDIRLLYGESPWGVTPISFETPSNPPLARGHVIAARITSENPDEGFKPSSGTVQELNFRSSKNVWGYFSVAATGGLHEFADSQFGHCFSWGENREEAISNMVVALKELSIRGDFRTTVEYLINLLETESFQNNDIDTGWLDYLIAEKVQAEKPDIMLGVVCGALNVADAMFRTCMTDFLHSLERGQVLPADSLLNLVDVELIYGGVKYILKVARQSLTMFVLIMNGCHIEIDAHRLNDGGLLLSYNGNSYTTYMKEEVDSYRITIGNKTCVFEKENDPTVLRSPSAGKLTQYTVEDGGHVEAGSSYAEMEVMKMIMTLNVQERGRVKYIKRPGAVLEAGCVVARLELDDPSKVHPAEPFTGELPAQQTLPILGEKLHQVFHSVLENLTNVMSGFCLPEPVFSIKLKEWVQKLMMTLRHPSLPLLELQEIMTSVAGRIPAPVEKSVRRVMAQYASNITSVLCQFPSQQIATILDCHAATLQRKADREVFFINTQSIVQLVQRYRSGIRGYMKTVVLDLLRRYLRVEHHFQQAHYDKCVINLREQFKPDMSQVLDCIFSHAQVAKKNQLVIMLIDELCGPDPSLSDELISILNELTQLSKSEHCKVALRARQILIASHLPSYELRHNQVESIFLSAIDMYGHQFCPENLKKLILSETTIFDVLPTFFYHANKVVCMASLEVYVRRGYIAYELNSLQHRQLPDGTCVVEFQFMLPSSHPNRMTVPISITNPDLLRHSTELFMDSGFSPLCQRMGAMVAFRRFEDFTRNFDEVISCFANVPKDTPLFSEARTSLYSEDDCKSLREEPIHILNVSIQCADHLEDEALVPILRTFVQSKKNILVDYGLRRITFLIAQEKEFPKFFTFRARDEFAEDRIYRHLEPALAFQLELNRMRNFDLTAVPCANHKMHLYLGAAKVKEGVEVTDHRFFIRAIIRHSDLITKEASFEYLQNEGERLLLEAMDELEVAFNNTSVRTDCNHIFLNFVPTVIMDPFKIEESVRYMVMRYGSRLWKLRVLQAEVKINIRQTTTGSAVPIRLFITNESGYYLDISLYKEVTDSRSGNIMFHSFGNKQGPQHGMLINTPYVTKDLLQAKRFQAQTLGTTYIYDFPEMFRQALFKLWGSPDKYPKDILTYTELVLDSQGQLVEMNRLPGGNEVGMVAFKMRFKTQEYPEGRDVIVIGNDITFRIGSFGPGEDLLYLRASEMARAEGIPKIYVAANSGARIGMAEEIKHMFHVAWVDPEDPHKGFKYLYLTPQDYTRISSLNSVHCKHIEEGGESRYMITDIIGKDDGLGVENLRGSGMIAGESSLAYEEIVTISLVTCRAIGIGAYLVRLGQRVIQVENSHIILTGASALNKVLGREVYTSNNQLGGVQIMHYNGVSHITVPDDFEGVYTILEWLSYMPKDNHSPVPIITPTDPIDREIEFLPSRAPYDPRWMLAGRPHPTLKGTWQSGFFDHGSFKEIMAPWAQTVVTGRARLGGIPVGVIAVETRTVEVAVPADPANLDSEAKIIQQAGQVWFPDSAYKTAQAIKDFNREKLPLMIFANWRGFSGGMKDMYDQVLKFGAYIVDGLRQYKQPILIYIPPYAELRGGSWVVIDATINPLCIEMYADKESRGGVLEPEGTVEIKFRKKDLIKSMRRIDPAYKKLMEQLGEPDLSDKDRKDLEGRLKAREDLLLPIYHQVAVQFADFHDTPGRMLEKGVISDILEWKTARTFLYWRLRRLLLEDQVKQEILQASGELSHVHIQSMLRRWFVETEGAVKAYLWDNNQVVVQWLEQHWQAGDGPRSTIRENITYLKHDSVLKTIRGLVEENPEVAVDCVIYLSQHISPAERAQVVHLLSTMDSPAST

As to `Nc1ncnc2c1ncn2[C@@H]1O[C@H](COP(=O)(O)OP(=O)(O)OP(=O)(O)O)[C@@H](O)[C@H]1O` [ATP], the figures for the Km at recombinant human ACC2, on Rat ACC1 and with Rat ACC2 (literature value) were 270 µM, 110 µM and 58 µM, respectively.

Consider `CC(=O)SCCNC(=O)CCNC(=O)[C@H](O)C(C)(C)COP(=O)(O)OP(=O)(O)OC[C@H]1O[C@@H](n2cnc3c(N)ncnc32)[C@H](O)[C@@H]1OP(=O)(O)O` [Acetyl CoA, acetyl CoA], for which the Km at Rat ACC1 is 22 µM; in the assay on Rat ACC2 (literature value), 32 µM.

As to `O=C(O)CC(O)(CC(=O)O)C(=O)O` [Citrate], the figures for the Kact at Rat ACC1 and in the assay on Rat ACC2 (literature value) were 3 mM and 2.1 mM, respectively.

In the case of `O=C(O)O` [HCO3^−, bicarbonate], the Michaelis constant (Km) on recombinant human ACC2 is 5000 µM; on Rat ACC1, 2700 µM; in the assay on Rat ACC2 (literature value) it was 2300 µM.

`CC(C)(COP(=O)(O)OP(=O)(O)OC[C@H]1O[C@@H](n2cnc3c(N)ncnc32)[C@H](O)[C@@H]1OP(=O)(O)O)[C@@H](O)C(=O)NCCC(=O)NCCSC(=O)CC(=O)O` [malonyl CoA]: the IC50 on recombinant human ACC2 was 26.7 µM; in the assay with Rat ACC2 it was 10.6 µM.

As for `CCCCCCCCCCCCCCCC(=O)SCCNC(=O)CCNC(=O)[C@H](O)C(C)(C)COP(=O)(O)OP(=O)(O)OC[C@H]1O[C@@H](n2cnc3c(N)ncnc32)[C@H](O)[C@@H]1OP(=O)(O)O` [palmitoyl CoA], the figures for the IC50 on recombinant human ACC2 and with Rat ACC2 were 4.4 µM and 2.2 µM, respectively.
